Our source for the inhibition values is patent US6797672B2, “Fungicidal compositions based on fludioxonil” (Syngenta Crop Protection, Inc., priority 2003, dated 2004).

The test concerns Botrytis cinerea. Briefly: Efficacy against Botrytis cinerea on apple (fruit cv. Golden Delicious). Format: in vivo. To be noted: 120 h, read-out: % activity observed. The text has this:
A synergistic effect exists whenever the action of an active ingredient combination is greater than the sum of the actions of the individual components.
The action to be expected E for a given active ingredient combination obeys the so-called COLBY formula and can be calculated as follows (COLBY, S. R. “Calculating synergistic and antagonistic responses of herbicide combination”. Weeds, Vol. 15, pages 20-22; 1967):
ppm=milligrams of active ingredient (=a.i.) per litre of spray mixture
X=% action by active ingredient I using p ppm of active ingredient
Y=% action by active ingredient II using q ppm of active ingredient.
According to Colby, the expected (additive) action of active ingredients I+II using p+q ppm of active ingredient is [formula]
If the action actually observed (O) is greater than the expected action (E), then the action of the combination is superadditive, i.e. there is a synergistic effect.
In an apple fruit cv. Golden Delicious 3 holes were drilled and each filled with 50 μl droplets of the formulated test composition. Two hours after application 50 μl of a spore suspension of B. cinerea (4×10^5 conidia/ml) were pipetted on the application sites. After an incubation period of 5 days at 20° C. in a growth chamber the % infected fruit area was determined. The activity was calculated relative to the disease rate on untreated apple fruits. The fungicide interactions in the mixture were calculated according to Colby.

Where two headings read alike, the source gives them in different places.

As to `N#Cc1c[nH]cc1-c1cccc2c1OC(F)(F)O2` [Fludioxonil, 4-(2,2-difluoro-1,3-benzodioxol-7-yl)pyrrole-3-carbonitrile], the inhibition at 0.1 µg/mL came out at 2%, the inhibition at 0.5 µg/mL turned out to be 24%, the inhibition at 2.5 µg/mL stood at 54% and the inhibition at 5 µg/mL turned out to be 67%.

With `c1ccc2[nH]c(-c3cscn3)nc2c1` [Thiabendazole, 2-(thiazol-4-yl)benzimidazol], the inhibition at 0.5 µg/mL (Thiabendazole 0.5 mg a.i./l, apple, 5 days at 20° C.) is 5%. Besides, the inhibition at 1 µg/mL (Thiabendazole 1 mg a.i./l, apple, 5 days at 20° C.) amounted to 10%. The inhibition at 2.5 µg/mL (Thiabendazole 2.5 mg a.i./l, apple, 5 days at 20° C.) is 10%. Moreover, the inhibition at 5 µg/mL (Thiabendazole 5 mg a.i./l, apple, 5 days at 20° C.) was found to be 12%. Moreover, the inhibition at 25 µg/mL (Thiabendazole 25 mg a.i./l, apple, 5 days at 20° C.) turned out to be 5%.
